This is an account of results in ChEMBL document CHEMBL4831488, “Design, synthesis, docking, molecular dynamics and bioevaluation studies on novel N-methylpicolinamide and thienopyrimidine derivatives with inhibiting NF-κB and TAK1 activities: Cheminformatics tools RDKit applied in drug design” (Eur J Med Chem, 2021).

Broadly, the inhibition is the change of the read-out against control, counted positive when it falls. By IC50 is commonly meant the concentration needed to halve the response being measured.

The subject of experiment [1] is A549. The experiment is described as follows: Cytotoxicity against human A549 cells assessed as inhibition of cell growth at 20 uM measured after 72 hrs by MTT assay relative to control. The experiment is classed as functional.
The target in another experiment is TAK1-TAB1 fusion protein (Homo sapiens, UniProt O43318). The experiment is described as follows: Inhibition of Tak1/Tab1 (unknown origin) assessed as inhibition of Tak1 kinase activity preincubated for 30 mins followed by addition of MBP protein and ATP and measured after 2 hrs by ADP-Glo kinase assay. A general note: In ADP-Glo the light output rises with the ADP produced.
TAK1-TAB1 fusion protein, sequence (O43318 whole entry, looked up, the tested form may be a part): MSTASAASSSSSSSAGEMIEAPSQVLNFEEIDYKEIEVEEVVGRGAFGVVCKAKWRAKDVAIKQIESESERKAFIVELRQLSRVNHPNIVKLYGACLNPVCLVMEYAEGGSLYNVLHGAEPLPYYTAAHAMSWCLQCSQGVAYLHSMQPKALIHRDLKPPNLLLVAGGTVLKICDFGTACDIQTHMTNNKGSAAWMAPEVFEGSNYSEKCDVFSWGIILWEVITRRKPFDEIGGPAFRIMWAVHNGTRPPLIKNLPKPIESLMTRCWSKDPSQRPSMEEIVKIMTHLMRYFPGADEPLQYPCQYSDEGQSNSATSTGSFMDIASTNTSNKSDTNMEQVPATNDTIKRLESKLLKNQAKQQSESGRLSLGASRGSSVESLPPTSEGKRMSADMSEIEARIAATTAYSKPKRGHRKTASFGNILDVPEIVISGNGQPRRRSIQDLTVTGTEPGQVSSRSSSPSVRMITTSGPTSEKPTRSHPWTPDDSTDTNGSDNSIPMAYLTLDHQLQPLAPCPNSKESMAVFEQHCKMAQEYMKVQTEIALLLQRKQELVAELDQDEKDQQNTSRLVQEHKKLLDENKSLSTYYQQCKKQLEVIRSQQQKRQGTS

Experiment [2] has as its system HCT-116. Description: Cytotoxicity against human HCT-116 cells assessed as inhibition of cell growth at 20 uM measured after 72 hrs by MTT assay relative to control. The experiment is classed as functional. (In general: Tetrazolium dyes change colour on reduction, which living cells bring about.)
Experiment [3] deals with A549. Description: Cytotoxicity against human A549 cells assessed as inhibition of cell growth measured after 72 hrs by MTT assay. It counts as functional, cell-based.
Another experiment concerns MDA-MB-231. The experiment is described as follows: Cytotoxicity against human MDA-MB-231 cells assessed as inhibition of cell growth at 20 uM measured after 72 hrs by MTT assay relative to control. The experiment is classed as functional.
In experiment [4] the test system is HCT-116. The experiment is described as follows: Cytotoxicity against human HCT-116 cells assessed as inhibition of cell growth measured after 72 hrs by MTT assay. The experiment is classed as functional, cell-based. The note with it: HCT-116, 72 h.
In another experiment the test system is MAP3K7/TAB1 [+]. The experiment is described as follows: Inhibition of Tak1/Tab1 (unknown origin) assessed as inhibition of Tak1 kinase activity preincubated for 30 mins followed by addition of MBP protein and ATP and measured after 2 hrs by ADP-Glo kinase assay.
The mark [5] stands for this setting: Homo sapiens, A549, 72 h, read-out: IC50.

For the compound `CN(c1ccc(Oc2ncnc3sccc23)cc1)c1nccc(N2CCc3ccccc3C2)n1`, the inhibition at 20 µM is 68.4% with A549 [1], 57.7% in the experiment with HCT-116 [2] and 24.3% in the experiment on MDA-MB-231. Besides, the IC50 was determined as 12 µM at TAK1-TAB1 fusion protein and 6.39 µM in the experiment on A549 [3] (setting [5]).

With `c1cc(N2CCCC2)nc(Nc2ccc(Oc3ncnc4ccsc34)cc2)n1`, the values for the inhibition at 20 µM with A549 [1], in the experiment on HCT-116 [2] and with MDA-MB-231 were 23.2%, 22.2% and 14.3%, respectively. Also, the half-maximal inhibitory concentration (IC50) entry with A549 [3] (a549) is reported as “Not Active”.

For the compound `CNC(=O)c1cc(Oc2ccc(Nc3nccc(N4CCc5ccccc5C4)n3)cc2)ccn1`, the inhibition at 20 µM worked out at 59.6% with A549 [1], 31.2% in the experiment with HCT-116 [2] and 41.2% in the experiment with MDA-MB-231. Further, the results for the IC50 on TAK1-TAB1 fusion protein, in the experiment on HCT-116 [4] and in the experiment on A549 [3] (setting [5]) were 1.26 µM, 15.8 µM and 3.19 µM, respectively.

For `CCN(CC)c1ccc(C(=O)Nc2ccc(Oc3ncnc4ccsc34)cc2)cc1`, the values for the inhibition at 20 µM with A549 [1], in the experiment with HCT-116 [2] and with MDA-MB-231 were 63.8%, 37.9% and 38.3%, respectively. Besides, the half-inhibitory concentration (IC50) in the experiment on A549 [3] (setting [5]) amounted to 8.03 µM.

Turning to `CNC(=O)c1cc(Oc2ccc(Nc3nccc(N4CCOCC4)n3)cc2)ccn1`, the figures for the inhibition at 20 µM in the experiment with A549 [1], in the experiment on HCT-116 [2] and with MDA-MB-231 were 66.3%, 48.3% and 34.1%, respectively. Besides, the IC50 in the experiment with HCT-116 [4] came out at 12.8 µM; in the experiment on A549 [3] (setting [5]), 7.34 µM.

`c1ccc(CNc2ccc(Oc3ncnc4ccsc34)cc2)cc1`: the inhibition at 20 µM in the experiment on A549 [1] was 30.6%; in the experiment with HCT-116 [2], -12.2%; in the experiment with MDA-MB-231, 3.72%. Moreover, the IC50 result in the experiment on A549 [3] (a549) was “Not Active”.

On to `c1cc(N2CCOCC2)nc(Nc2ccc(Oc3ncnc4sccc34)cc2)n1`, for which the inhibition at 20 µM with A549 [1] stood at 36.7%; with HCT-116 [2], 37.5%; in the experiment on MDA-MB-231, 14.5%. Further, the IC50 with A549 [3] (setting [5]) turned out to be 9.31 µM.

On to `CN(c1ccc(Oc2ncnc3ccsc23)cc1)c1nccc(N2CCCC2)n1`, for which the IC50 entry in the experiment on MAP3K7/TAB1 [+] is “Not Active”; with A549 [3] (setting [5]) it was 6.51 µM. Also, the inhibition at 20 µM in the experiment with A549 [1] was determined as 63.9%; with HCT-116 [2], 63.5%; in the experiment on MDA-MB-231 it was 38%.

With `c1ccc2c(c1)CCN(c1ccnc(Nc3ccc(Oc4ncnc5ccsc45)cc3)n1)C2`, the inhibition at 20 µM came to 54.9% with A549 [1], 40.9% with HCT-116 [2] and 15.4% in the experiment with MDA-MB-231. Also, the concentration for half-maximal inhibition (IC50) with A549 [3] (setting [5]) was found to be 17 µM.

For `CN(c1ccc(Oc2ncnc3sccc23)cc1)c1nccc(N2CCc3ccccc32)n1`, the inhibition at 20 µM with A549 [1] is 29.4%; in the experiment with HCT-116 [2] it was 20%; in the experiment on MDA-MB-231 it was 17.6%. Besides, in the experiment on A549 [3] (setting [5]), the IC50 came out at 19.6 µM.

Turning to `CN(C)c1ccc(C(=O)Nc2ccc(Oc3ncnc4ccsc34)cc2)cc1`, the inhibition at 20 µM in the experiment on A549 [1] came to 50.8%; in the experiment on HCT-116 [2], 53.9%; in the experiment with MDA-MB-231, 10.4%. The IC50 in the experiment on A549 [3] (setting [5]) amounted to 20.2 µM.

Regarding `c1cc(N2CCCCC2)nc(Nc2ccc(Oc3ncnc4sccc34)cc2)n1`, the inhibition at 20 µM amounted to 64.8% in the experiment with A549 [1], 66.3% in the experiment on HCT-116 [2] and 40.4% with MDA-MB-231. Besides, the figures for the concentration for half-maximal inhibition (IC50) at TAK1-TAB1 fusion protein and with A549 [3] (setting [5]) were 2.52 µM and 4.02 µM, respectively.

For `CNC(=O)c1cc(Oc2ccc(Nc3nccc(N4CCCC4)n3)cc2)ccn1`, the inhibition at 20 µM stood at 59.6% in the experiment with A549 [1], 66.4% in the experiment on HCT-116 [2] and 46.6% in the experiment with MDA-MB-231. The IC50 on TAK1-TAB1 fusion protein was found to be 1.36 µM; in the experiment with HCT-116 [4] it was 1.41 µM; in the experiment on A549 [3] (setting [5]), 3.41 µM.

For `c1ccc2c(c1)CCN2c1ccnc(Nc2ccc(Oc3ncnc4sccc34)cc2)n1`, the inhibition at 20 µM is 2.81% in the experiment with A549 [1], -0.62% in the experiment with HCT-116 [2] and 9.95% in the experiment on MDA-MB-231. The IC50 result in the experiment with A549 [3] (a549) is reported as “Not Active”.

As to `CN(c1ccc(Oc2ncnc3ccsc23)cc1)c1nccc(N2CCc3ccccc32)n1`, the inhibition at 20 µM came out at 58.2% in the experiment with A549 [1], 57.8% in the experiment on HCT-116 [2] and 38.2% with MDA-MB-231. Further, the IC50 in the experiment with A549 [3] (setting [5]) was 20.5 µM.

In the case of `c1ccc2c(c1)CCN(c1ccnc(Nc3ccc(Oc4ncnc5sccc45)cc3)n1)C2`, the inhibition at 20 µM in the experiment with A549 [1] is 34%; with HCT-116 [2], 18.1%; with MDA-MB-231, 26.8%. Also, the IC50 at TAK1-TAB1 fusion protein came to 6.87 µM; with A549 [3] (setting [5]) it was 6.75 µM.

Regarding `CN(c1ccc(Oc2ncnc3ccsc23)cc1)c1nccc(N2CCCCC2)n1`, the inhibition at 20 µM was found to be 65.7% in the experiment on A549 [1], 66.2% in the experiment on HCT-116 [2] and 49.7% in the experiment with MDA-MB-231. Besides, the IC50 in the experiment on A549 [3] (setting [5]) worked out at 8.24 µM.

On to `CN(c1ccc(Oc2ncnc3sccc23)cc1)c1nccc(N2CCCCC2)n1`, for which the inhibition at 20 µM with A549 [1] turned out to be 51.9%; with HCT-116 [2], 52.1%; with MDA-MB-231 it was 29.3%. For the same compound, in the experiment with A549 [3] (setting [5]), the IC50 stood at 8.79 µM.

Turning to `CN(c1ccc(Oc2ncnc3ccsc23)cc1)c1nccc(N2CCc3ccccc3C2)n1`, the inhibition at 20 µM in the experiment on A549 [1] is 69.9%; in the experiment on HCT-116 [2], 58.3%; in the experiment on MDA-MB-231, 30.2%. For the same compound, the half-maximal inhibitory concentration (IC50) in the experiment on A549 [3] (setting [5]) was 16.1 µM.

With `c1cc(N2CCCCC2)nc(Nc2ccc(Oc3ncnc4ccsc34)cc2)n1`, the inhibition at 20 µM with A549 [1] was 59.9%; in the experiment with HCT-116 [2] it was 61.5%; in the experiment with MDA-MB-231, 45.7%. Also, in the experiment on A549 [3] (setting [5]), the IC50 amounted to 7.8 µM.

For `CN(c1ccc(Oc2ncnc3sccc23)cc1)c1nccc(N2CCCC2)n1`, the inhibition at 20 µM in the experiment on A549 [1] is 55.5%; in the experiment on HCT-116 [2], 42.2%; with MDA-MB-231, 31%. Besides, the IC50 in the experiment on A549 [3] (setting [5]) worked out at 15.1 µM.

As for `c1cc(N2CCCC2)nc(Nc2ccc(Oc3ncnc4sccc34)cc2)n1`, the inhibition at 20 µM with A549 [1] stood at 61%; in the experiment on HCT-116 [2], 54.4%; in the experiment with MDA-MB-231 it was 24.7%. Besides, the IC50 in the experiment on A549 [3] (setting [5]) came to 8.1 µM.

In the case of `c1cc(N2CCOCC2)nc(Nc2ccc(Oc3ncnc4ccsc34)cc2)n1`, the inhibition at 20 µM with A549 [1] stood at 57.9%; in the experiment with HCT-116 [2], 53.1%; with MDA-MB-231, 23%. In addition, the IC50 was 15.7 µM on TAK1-TAB1 fusion protein and 6.86 µM in the experiment with A549 [3] (setting [5]).
